Measurements published in article PMC7817009, “Structural analysis of rice Os4BGlu18 monolignol β-glucosidase” (PLoS ONE, 2021).

Molecular target: T1, Os4BGlu18 (Oryza sativa, UniProt Q7XSK0)
T1 construct: gene BGLU18; mature protein without predicted signal peptide (1-26); N-terminal thioredoxin-His6 tag cut with enterokinase, a few tag residues remain; residues 27-500 seen, last five (LHENQ) disordered
Experiment: X-ray crystallography of soaked crystal, […] Å
Settings: crystals soaked in 1 mM for 20 min, MES pH 6.0; glycone-binding active site (subsite -1)

T1 sequence (Q7XSK0 27-505): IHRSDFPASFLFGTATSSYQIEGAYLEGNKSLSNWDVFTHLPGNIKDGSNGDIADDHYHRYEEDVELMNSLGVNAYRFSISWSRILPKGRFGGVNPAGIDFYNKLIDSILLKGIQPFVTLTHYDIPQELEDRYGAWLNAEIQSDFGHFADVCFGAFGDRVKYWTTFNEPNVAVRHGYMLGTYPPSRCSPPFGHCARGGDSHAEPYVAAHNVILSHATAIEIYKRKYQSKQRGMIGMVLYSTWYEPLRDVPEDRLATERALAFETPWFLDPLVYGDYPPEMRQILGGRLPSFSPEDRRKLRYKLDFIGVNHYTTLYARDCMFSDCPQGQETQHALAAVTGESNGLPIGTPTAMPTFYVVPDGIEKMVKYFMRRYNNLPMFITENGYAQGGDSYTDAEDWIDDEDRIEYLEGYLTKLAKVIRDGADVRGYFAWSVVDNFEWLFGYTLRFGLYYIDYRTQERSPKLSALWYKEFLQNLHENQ

## O=C1O[C@H](CO)[C@@H](O)[C@H](O)[C@H]1O [DG, δ-gluconolactone]
  X-ray crystallography of soaked crystal, 2.1 Å: could be observed in the active site pocket
